Source: patent EP0603240B1, “SAFENING HERBICIDAL PYRAZOLYLSULFONYLUREAS” (priority 1991, dated 1993)

Tests used:
Type in all cases: in vivo
[1] = test system: corn; test: Example 22: retest of Example 21 at reduced greenhouse temperatures; details: Table 22
Method: (§1) Containers were filled and compacted with a fumigated silt loam top soil to a depth of about 1.3 cm from the top of the container. A first container was designated as an untreated control, a second container was designated as a herbicide control, and a third container was designated as a herbicide + antidote test container. Each of the containers was seeded with a crop species. A measured amount of herbicide dispersed or dissolved in acetone was applied to a measured quantity of soil. To this same quantity of soil treated with herbicide, there was added a measured amount of antidote dispersed or dissolved in acetone. The quantity of soil treated with the herbicide and antidote was thoroughly mixed to incorporate the herbicide and antidote in the soil uniformly. The seed bed in the third container of soil was covered with the soil treated with the herbicide and antidote and the container was leveled. For each test series, the seed beds of the first and second containers were likewise covered by soil layers. the cover layer of the first container was not treated with herbicide or antidote.
(§2) The containers were then placed on a bench in a greenhouse and sub-irrigated as required for the duration of the test. […] Plant response is measured in terms of percent injury. Antidote efficacy is indicated as the difference in plant injury by the herbicide(s) without the antidote and with the antidote.
(§3) This procedure is the same as Procedure I, but modified in the manner that after incorporation of the chemicals (herbicide and antidote) the containers with the covered seedbed were treated with an initial overhead irrigation equivalent to 0.6 cm rainfall, then subsequently sub-irrigated as required on greenhouse benches.
In this example, tests were conducted as in the preceding Examples 18-20, except here the co-herbicidal component was SUTAN® PLUS, a commercial product comprising as the active herbicidal ingredient the compound butylate (Herbicide No. 10) and an antidote […] (Antidote No. 1). Again, the antidotal compounds herein were Nos. 1, 2, 7, 13 and 15. Procedure II was used.
The experiments in this example were designed as a retest of those described in Example 21 in view of the uncharacteristically poor corn safety and weed control, believed to have resulted from unseasonably high temperatures in the greenhouse. Accordingly, temperatures were reduced for these tests.

[2] = test system: corn; test: Example 6, Procedure II: Herbicide No. 1 + alachlor (No. 7) with antidotes
Summary of the method: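 Herbicide No. 1 plus alachlor and antidote, each applied in acetone, mixed into silt loam cover soil over seeded corn; untreated and herbicide-only controls included. Given initial overhead irrigation equal to 0.6 cm rainfall, then greenhouse sub-irrigation. Percent injury scored, duplicate averages; efficacy is injury without minus with antidote.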

[3] = test system: corn; test: Example 18, Procedure II: Herbicide No. 1 + ERADICANE (EPTC + R-25788) with auxiliary antidotes
Method: as §1, §2, §3
In the test reported in this example, the herbicidal composition was similar to that used in Example 16 in that Herbicide No. 1 was combined with EPTC (Herbicide No. 4) as a co-herbicide and the antidotes included Nos. 1, 2, 7, 13 and 15. However, in this test the EPTC was introduced as a formulation of ERADICANE (EPTC + the antidote R-25788, i.e., Antidote No. 1) at an application rate of 8.96 kg/ha. Thus, in this test two antidotes were present, viz. R-25788 and one of the auxilliary antidotes, No. 2, 13 and 15.
Test procedures were those of Procedure II above.

[4] = test system: corn; test: Example 24, Procedure II: Herbicide No. 1 + co-herbicides Nos. 4, 6, 7, 12 with Antidote Nos. 15 and 17-21
Summary of the method: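 Greenhouse pots, herbicide No. 1 plus co-herbicides and antidote in acetone incorporated into silt loam soil covering the corn seed bed, with giant foxtail and velvetleaf; initial overhead irrigation equal to 0.6 cm rainfall, then sub-irrigation. Antidote at 2.24 kg/ha; percent injury read 13 days after application, duplicate average.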

[5] = test system: velvetleaf (Abutilon theophrasti); test: Example 23, Procedure II: Antidote Nos. 15 and 17-21 against Herbicide No. 1, 13 days after application
Summary of the method: (§4)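 Herbicide and antidote were applied in acetone, mixed into the silt loam used to cover the seeded beds, then given overhead irrigation equal to 0.6 cm rainfall and sub-irrigated in the greenhouse. Antidotes were applied at 2.24 or 0.56 kg/ha. Percent injury is the mean of duplicates, scored 13 days after application.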

[6] = test system: corn; test: as above; details: 13 days after application
Summary of the method: as §4

[7] = test system: Giant foxtail (Setaria fabergi); test: as above
Summary of the method: as §4

[8] = Herbicide No.1 0.56 Kg/ha + SUTAN + 8.96 Kg/ha + antidote 2.24 Kg/ha
[9] = Herbicide No.1 0.56 Kg/ha + SUTAN + 8.96 Kg/ha + antidote 8.96 Kg/ha
[10] = Herbicide No.1 1.12 Kg/ha + SUTAN + 8.96 Kg/ha + antidote 2.24 Kg/ha
[11] = Herbicide No.1 1.12 Kg/ha + SUTAN + 8.96 Kg/ha + antidote 8.96 Kg/ha
[12] = Herbicide No.1 0.14 + No.7 4.48 kg/ha + antidote 2.24 kg/ha
[13] = Herbicide No.1 0.14 + No.7 4.48 kg/ha + antidote 8.96 kg/ha
[14] = Herbicide No.1 0.56 + No.7 4.48 kg/ha + antidote 2.24 kg/ha
[15] = Herbicide No.1 0.56 + No.7 4.48 kg/ha + antidote 8.96 kg/ha
[16] = Herbicide No.1 0.56 kg/ha + ERADICANE 8.96 kg/ha, antidote 2.24 kg/ha
[17] = Herbicide No.1 0.56 kg/ha + ERADICANE 8.96 kg/ha, antidote 8.96 kg/ha
[18] = Herbicide No.1 1.12 kg/ha + ERADICANE 8.96 kg/ha, antidote 2.24 kg/ha
[19] = Herbicide No.1 1.12 kg/ha + ERADICANE 8.96 kg/ha, antidote 8.96 kg/ha
[20] = Table 23A, Herb. No. 1 0.14 Kg/Ha + antidote 2.24 Kg/ha
[21] = Table 23A, Herb. No. 1 0.28 Kg/Ha + antidote 2.24 Kg/ha
[22] = Table 23A, Herb. No. 1 0.56 Kg/Ha + antidote 2.24 Kg/ha
[23] = Table 23A, Herb. No. 1 1.12 Kg/Ha + antidote 2.24 Kg/ha
[24] = Table 23B, Herb. No. 1 0.14 Kg/Ha + antidote 0.56 Kg/ha
[25] = Table 23B, Herb. No. 1 0.28 Kg/Ha + antidote 0.56 Kg/ha
[26] = Table 23B, Herb. No. 1 0.56 Kg/Ha + antidote 0.56 Kg/ha
[27] = Table 23B, Herb. No. 1 1.12 Kg/Ha + antidote 0.56 Kg/ha

O=C1OC(=O)c2cccc3cccc1c23 [compound 2]
% Injury Corn [1, 8]: 45% | % Injury Corn [1, 9]: 55% | % Injury Corn [1, 10]: 40% | % Injury Corn [1, 11]: 50% | % Injury Corn [2, 12]: 0% | % Injury Corn [2, 13]: 15% | % Injury Corn [2, 14]: 10% | % Injury Corn [2, 15]: 15% | % Injury Corn [3, 16]: 15% | % Injury Corn [3, 17]: 25% | % Injury Corn [3, 18]: 20% | % Injury Corn [3, 19]: 20%

O=C(C(Cl)Cl)N1CCOC12CCCCC2 [compound 7]
% Injury Corn [1, 8]: 45% | % Injury Corn [1, 9]: 50% | % Injury Corn [1, 10]: 65% | % Injury Corn [1, 11]: 50% | % Injury Corn [2, 12]: 0% | % Injury Corn [2, 13]: 10% | % Injury Corn [2, 14]: 10% | % Injury Corn [2, 15]: 5% | % Injury Corn [3, 16]: 15% | % Injury Corn [3, 17]: 20% | % Injury Corn [3, 18]: 15% | % Injury Corn [3, 19]: 10%

CC1(C)OC(c2ccco2)CN1C(=O)C(Cl)Cl (stereo not shown) [compound 15]
% Inhibition Corn ([4]; Herb. No. 1 0.07 Kg/ha + Co-Herb. No. 4 1.12 Kg/ha + antidote 2.24 Kg/ha): 0% | % Inhibition Corn ([4]; Herb. No. 1 0.07 Kg/ha + Co-Herb. No. 6 0.14 Kg/ha + antidote 2.24 Kg/ha): 5% | % Inhibition Corn ([4]; Herb. No. 1 0.07 Kg/ha + Co-Herb. No. 7 0.28 Kg/ha + antidote 2.24 Kg/ha): 0% | % Inhibition Corn ([4]; Herb. No. 1 0.07 Kg/ha + Co-Herb. No. 12 0.28 Kg/ha + antidote 2.24 Kg/ha): 5% | % Inhibition Corn ([4]; Herb. No. 1 0.14 Kg/ha + Co-Herb. No. 4 1.12 Kg/ha + antidote 2.24 Kg/ha): 10% | % Inhibition Corn ([4]; Herb. No. 1 0.14 Kg/ha + Co-Herb. No. 6 0.14 Kg/ha + antidote 2.24 Kg/ha): 5% | % Inhibition Corn ([4]; Herb. No. 1 0.14 Kg/ha + Co-Herb. No. 7 0.28 Kg/ha + antidote 2.24 Kg/ha): 0% | % Inhibition Corn ([4]; Herb. No. 1 0.14 Kg/ha + Co-Herb. No. 12 0.28 Kg/ha + antidote 2.24 Kg/ha): 5% | % Inhibition Corn ([4]; Herb. No. 1 0.28 Kg/ha + Co-Herb. No. 4 1.12 Kg/ha + antidote 2.24 Kg/ha): 5% | % Inhibition Corn ([4]; Herb. No. 1 0.28 Kg/ha + Co-Herb. No. 6 0.14 Kg/ha + antidote 2.24 Kg/ha): 10% | % Inhibition Corn ([4]; Herb. No. 1 0.28 Kg/ha + Co-Herb. No. 7 0.28 Kg/ha + antidote 2.24 Kg/ha): 0% | % Inhibition Corn ([4]; Herb. No. 1 0.28 Kg/ha + Co-Herb. No. 12 0.28 Kg/ha + antidote 2.24 Kg/ha): 5% | % Inhibition Corn ([4]; Herb. No. 1 0.56 Kg/ha + Co-Herb. No. 4 1.12 Kg/ha + antidote 2.24 Kg/ha): 15% | % Inhibition Corn ([4]; Herb. No. 1 0.56 Kg/ha + Co-Herb. No. 6 0.14 Kg/ha + antidote 2.24 Kg/ha): 10% | % Inhibition Corn ([4]; Herb. No. 1 0.56 Kg/ha + Co-Herb. No. 7 0.28 Kg/ha + antidote 2.24 Kg/ha): 5% | % Inhibition Corn ([4]; Herb. No. 1 0.56 Kg/ha + Co-Herb. No. 12 0.28 Kg/ha + antidote 2.24 Kg/ha): 5% | % Injury Corn [1, 8]: 45% | % Injury Corn [1, 9]: 55% | % Injury Corn [1, 10]: 60% | % Injury Corn [1, 11]: 45% | % Inhibition VL [5, 20]: 90% | % Inhibition VL [5, 21]: 90% | % Inhibition VL [5, 22]: 90% | % Inhibition VL [5, 23]: 98% | % Inhibition VL [5, 24]: 85% | % Inhibition VL [5, 25]: 90% | % Inhibition VL [5, 26]: 95% | % Inhibition VL [5, 27]: 95% | % Inhibition Corn [6, 20]: 5% | % Inhibition Corn [6, 21]: 0% | % Inhibition Corn [6, 22]: 5% | % Inhibition Corn [6, 23]: 20% | % Inhibition Corn [6, 24]: 0% | % Inhibition Corn [6, 25]: 0% | % Inhibition Corn [6, 26]: 5% | % Inhibition Corn [6, 27]: 10% | % Inhibition GFT [7, 20]: 20% | % Inhibition GFT [7, 21]: 30% | % Inhibition GFT [7, 22]: 65% | % Inhibition GFT [7, 23]: 75% | % Inhibition GFT [7, 24]: 20% | % Inhibition GFT [7, 25]: 30% | % Inhibition GFT [7, 26]: 60% | % Inhibition GFT [7, 27]: 70% | % Injury Corn [2, 12]: 20% | % Injury Corn [2, 13]: 10% | % Injury Corn [2, 14]: 15% | % Injury Corn [2, 15]: 15% | % Injury Corn [3, 16]: 25% | % Injury Corn [3, 17]: 25% | % Injury Corn [3, 18]: 15% | % Injury Corn [3, 19]: 30%

CC1(C(Cl)Cl)OCCO1 [compound 13]
% Injury Corn [1, 8]: 70% | % Injury Corn [1, 9]: 60% | % Injury Corn [1, 10]: 75% | % Injury Corn [1, 11]: 60% | % Injury Corn [2, 12]: 0% | % Injury Corn [2, 13]: 0% | % Injury Corn [2, 14]: 5% | % Injury Corn [2, 15]: 15% | % Injury Corn [3, 16]: 10% | % Injury Corn [3, 17]: 20% | % Injury Corn [3, 18]: 10% | % Injury Corn [3, 19]: 40%

C=CCN(CC=C)C(=O)C(Cl)Cl [compound 1]
% Injury Corn [1, 8]: 45% | % Injury Corn [1, 9]: 60% | % Injury Corn [1, 10]: 50% | % Injury Corn [1, 11]: 55% | % Injury Corn [2, 12]: 10% | % Injury Corn [2, 13]: 0% | % Injury Corn [2, 14]: 15% | % Injury Corn [2, 15]: 5% | % Injury Corn [3, 16]: 30% | % Injury Corn [3, 17]: 25% | % Injury Corn [3, 18]: 35% | % Injury Corn [3, 19]: 25%
